{"source": "patent US9095564B2", "about": "“von Willebrand factor or factor VIII and von Willebrand factor for the treatment of coagulopathy induced by inhibitors of thrombocytes” (CSL Behring GmbH, priority 2008, dated 2015)", "key": {"clopidogrel treated rats": {"tested_on": "clopidogrel treated rats", "test": "Tail tip bleeding (total blood loss) in the rat clopidogrel model", "assay_type": "in vivo", "protocol": "The study was designed as an open seven-armed trial with 115 rats (+60 platelet donors).\n3.2 mL blood were mixed with 0.8 mL trisodium citrate. Blood samples were pooled and centrifuged at 900 RPM for 30 minutes. Platelet-rich-plasma was collected into a fresh tube and centrifugated at 1800-2000 RPM for 15-17 minutes. The pellet was gently resuspended in Tyrode HEPES+0.3% BSA. Depending on platelet yield animals received 1.6−3×10^9 washed platelets intravenous into the tail vein.\nTablets were dissolved in isotonic saline and administered by gavage. On day 2 freshly prepared rat platelets were transfused into the tail vein by a bolus. Haemate® P was administered directly prior to platelet transfusion. 15 minutes after administration of platelets, blood loss was determined. The volume of total blood loss was calculated by measuring the HGB present in the saline used for submersion of the tail tip. The tail tip cut was performed with a scalpel knife under deep anesthesia, removing about 3 mm of the tail tip. Immediately upon lesion, the tail tip was submerged in saline, kept at the physiological body temperature of the rats using a water bath. The observation period to monitor bleeding was 30 min.\nBlood loss was determined as the total blood loss (t=0-30 min) and analyzed by two-sided exact Wilcoxon test, box plot and Kaplan-Meier plot."}, "[1]": {"tested_on": "thrombin generation in platelet rich plasma", "test": "Thrombin generation/thrombogram in platelet rich plasma, rat clopidogrel model", "assay_type": "in vivo", "conditions": "clopidogrel treatment, or single agent given to clopidogrel treated rats", "protocol": "When Haemate® P was administered to clopigogrel treated rats an earlier onset of thrombin formation was observed but no increase of peak thrombin."}, "[2]": {"conditions": "Group 1: Plavix/Isotonic saline, t=0-30 min"}}, "data": [{"smiles": "COC(=O)[C@H](c1ccccc1Cl)N1CCc2sccc2C1", "note": "[Plavix, clopidogrel]", "values": [{"measurement": "Total blood loss, Maximum", "setting": "clopidogrel treated rats; [2]", "result": 2345, "unit": "µL"}, {"measurement": "Total blood loss, Mean", "setting": "clopidogrel treated rats; [2]", "result": 1404.2, "unit": "µL"}, {"measurement": "Total blood loss, Median", "setting": "clopidogrel treated rats; [2]", "result": 1466, "unit": "µL"}, {"measurement": "Total blood loss, Minimum", "setting": "clopidogrel treated rats; [2]", "result": 265, "unit": "µL"}, {"measurement": "total blood loss (result in words)", "setting": "clopidogrel treated rats; oral treatment with clopidogrel 2.5 mg/kg day 0 and day 1", "result": "increased total blood loss"}, {"measurement": "onset of thrombin formation", "setting": "[1]", "result": "later onset"}, {"measurement": "peak thrombin", "setting": "[1]", "result": "decrease in peak thrombin"}]}]}
